Laboratory results: the OPERA property sets (Mansouri et al. 2018)

Conditions: not given

Compound	log10 Koc (L/kg)	melting point	boiling point	log10 vapour pressure (mmHg)	log10 Henry constant (atm·m³/mol)	log10 Koa	ready biodegradability	log10 biodegradation half-life (days)
Cc1ccc2c(c1N)C(=O)c1ccccc1C2=O	3.9	206 °C						
C=CCc1cc(OC)c2c(c1OC)OCO2		29.5 °C	294 °C					
CCCCC(Cl)CCl (stereo not given)			173 °C					
C[C@]12CC[C@@H](O)C[C@@H]1CC[C@@H]1[C@@H]2CC[C@]2(C)C(=O)CC[C@@H]12		182 °C						
Oc1ccc2cccnc2c1		239 °C						
Cc1cccc(Cl)c1		-47.8 °C	162 °C	0.565				
O=C(O)c1cccs1		130 °C						
c1ccc(-c2ncc[nH]2)cc1		149 °C	340 °C					
NCCc1c[nH]c2ccc(O)cc12		168 °C						
C=C[Si](C=C)(C=C)C=C			130 °C					
CNC			6.8 °C	3.18	-4.75	2	readily biodegradable	
CCCC=CC(=O)O		36.5 °C	216 °C					
C=Cc1ccco1		-94 °C	99.5 °C					
Brc1ccc(Oc2ccccc2)cc1Br						8.55		
O=C(O)c1cc(O)c(O)c(O)c1							readily biodegradable	
O=C(O)c1cc(F)ccc1F		133 °C						
c1ccc2c(c1)cc1ccc3c4ccccc4cc4ccc2c1c43		317 °C						
CCc1cccc([N+](=O)[O-])c1		-37.9 °C	242 °C					
C=CC#CC=C		-88 °C	85 °C					
CCC(=O)Cc1ccccc1			230 °C					
NC(=O)C(=O)O				-6.33				
CC1(C)CCCC(O)C1 (stereo not given)		11.5 °C	185 °C					

Compound	log10 Koc (L/kg)	melting point	boiling point	log10 vapour pressure (mmHg)	log10 Henry constant (atm·m³/mol)	log10 Koa	ready biodegradability	log10 biodegradation half-life (days)
C=C(C)F			-24 °C					
CC(C)(C)c1cc(O)c(C(C)(C)C)cc1O		218 °C						
CCC(CC)[N+](=O)[O-]							readily biodegradable	
CCCC(=O)c1ccccc1O		10 °C						
c1ccc2c(c1)-c1ccc3ccc4cccc5cc-2c1c3c45	6.2	164 °C	536 °C		-6.46			2.52
CCCC(=NOCC)C1=C(O)CC(C2CCCSC2)CC1=O (stereo not given)		41 °C		-7.12				
OC[C@]1(O)OC[C@@H](O)[C@H](O)[C@@H]1O		134 °C						
CCC1(c2ccccc2)C(=O)NC(=O)NC1=O		174 °C					not readily biodegradable	
Cc1cc2ccccc2oc1=O		91 °C	292 °C					
O=C(Cl)C=Cc1ccccc1		36 °C	257 °C					
CCC(C)=O		-86.6 °C		1.96	-4.24	2.71	readily biodegradable	
CCOP(=S)(OCC)SCSP(=S)(OCC)OCC	4.06	-13 °C		-5.82				
CCCCCCO[N+](=O)[O-]			171 °C	0.199	-2.83			
CC[C@H]1C[N@@]2CC[C@H]1C[C@H]2[C@H](O)c1ccnc2ccc(OC)cc12		170 °C						
CC(C)=CCCC(C)O (stereo not given)			175 °C					
CCOC(=O)c1ccccc1OC			261 °C					
CC[C@H]1CN2CC[C@]3(C(=O)Nc4ccccc43)[C@@H]2C[C@@H]1/C(=C\OC)C(=O)OC		216 °C						
C=C1C(=O)O[C@@H]2[C@H]1CC[C@H](C)[C@]1(O)C=CC(=O)[C@@]21C		164 °C						
CCCCOC(=O)CCCCC(=O)OCCCC		-32.4 °C					readily biodegradable	
O=c1oc2cc(O)ccc2s1		160 °C						
NCc1cc(O)no1		175 °C						
CC(O)Cn1c(=O)c2c(ncn2C)n(C)c1=O (stereo not given)		141 °C						

Compound	log10 Koc (L/kg)	melting point	boiling point	log10 vapour pressure (mmHg)	log10 Henry constant (atm·m³/mol)	log10 Koa	ready biodegradability	log10 biodegradation half-life (days)
CC(C)c1ccc(NC(=O)N(C)C)cc1		158 °C		-7.61				
CN1C(=O)CN=C(c2ccccc2)c2cc([N+](=O)[O-])ccc21		82 °C						
CC(Cl)C(=O)CCl (stereo not given)			166 °C					
c1cnc2ncncc2n1		140 °C						
O=[N+]([O-])c1ccc(Oc2ccccc2)cc1		61 °C	320 °C					
CCCCCCCCCCCCCCCCC(CCC)c1ccccc1 (stereo not given)		31.4 °C						
CCC(C)n1c(=O)[nH]c(C)c(Br)c1=O (stereo not given)	1.6	158 °C		-6.51				
CC(=O)Oc1ccc(Cl)cc1Cl			244 °C					
CC(=O)CC(=O)Nc1ccccc1C		105 °C					readily biodegradable	
CN(C)C(=O)Nc1ccc(F)cc1	1.43							
Fc1c(F)c(F)c(Cl)c(F)c1F			118 °C	1.25				
NCC(F)(F)F			37.5 °C					
Cc1cccnn1		184 °C	214 °C					
O=c1[nH]c(=O)n([C@H]2CC[C@@H](CO)O2)cc1Br		180 °C						
COc1cccc(N(C)C(=S)Oc2cccc(C(C)(C)C)c2)n1		86 °C						
NC(=O)c1ccc([N+](=O)[O-])cc1Cl		172 °C					readily biodegradable	
c1cc2ccc3ccc4ccc5ccc6ccc1c1c2c3c4c5c61		437 °C	525 °C	-11.7				2.87
O=C1CCCO1		-43.3 °C	204 °C	-0.347			readily biodegradable	
CC[N+](C)(CC)CCOC(=O)C1c2ccccc2Oc2ccccc21.[Br-]		174 °C						
O=C[C@@H](O)C(O)CO (stereo in doubt)		129 °C						
CC(C)C1(Cc2ccco2)C(=O)NC(=O)NC1=O		169 °C						
ClC1CCCCC1		-44 °C	142 °C	0.828			not readily biodegradable	

Compound	log10 Koc (L/kg)	melting point	boiling point	log10 vapour pressure (mmHg)	log10 Henry constant (atm·m³/mol)	log10 Koa	ready biodegradability	log10 biodegradation half-life (days)
CN(N=O)c1ccccc1		14.7 °C						
CCOC(=O)COC(=O)c1ccccc1C(=O)OCC	2.54							
CC(C)(CO)[N+](=O)[O-]		89.5 °C						
CC1(C)O[C@H]2CC(=O)OC[C@]23[C@H]2CC[C@@]4(C)[C@H](c5ccoc5)OC(=O)[C@H]5O[C@]54[C@]2(C)C(=O)C[C@@H]13		298 °C						
Oc1ccc2ncccc2c1		195 °C	360 °C					
c1ccc2c(c1)nnc1ccccc12		158 °C						
CCN(Cc1c(F)cccc1Cl)c1c([N+](=O)[O-])cc(C(F)(F)F)cc1[N+](=O)[O-]	4	102 °C		-6.62				
Nc1c(Cl)cc(-c2cc(Cl)c(N)c(S(=O)(=O)O)c2)cc1S(=O)(=O)O							not readily biodegradable	
Nc1ccccc1[N+](=O)[O-]		71 °C	284 °C	-2.56	-7.23		not readily biodegradable	
COc1ccc(CO)cc1OC			298 °C					
Cc1ccc(NC(=O)N(C)C)cc1	1.51							
CCN1CCOCC1		-64 °C	138 °C	0.702			not readily biodegradable	
FC(F)(F)C(F)(F)Cl		-99.4 °C	-37.9 °C	3.84				
c1ccc2c(c1)-c1cccc3c1c-2cc1ccccc13		168 °C		-6.3	-6.18			2.45
C=CCOC=O			83.6 °C					
O=[N+]([O-])c1ccc(O[C@@H]2O[C@H](CO)[C@H](O)[C@H](O)[C@H]2O)cc1		189 °C						
O=C(O)c1cc(Cl)c(O)c(Cl)c1		265 °C						
FC(F)(F)C(F)(F)C(F)(C(F)(F)F)C(F)(F)C(F)(F)F		-115 °C	58.4 °C					
CCCCCCC(=O)O		-7.5 °C	222 °C	-1.97			readily biodegradable	
O=C1c2ccccc2C(=O)N1SC(Cl)(Cl)Cl	3.27			-6.8				

Same assay, conditions: fish

Compound	log10 BCF	log10 biotransformation half-life (days)
CCC(C)n1c(=O)[nH]c(C)c(Br)c1=O (stereo not given)	0.51	-1.33
ClC1CCCCC1	2.34	0.41
Nc1ccccc1[N+](=O)[O-]	1	-0.46
